In brackets after ≈: the same amount, converted by molar mass. Several values for one entry are separate records, joined by “and”; a condition that tells them apart may be missing. Equal values may be shown once. Entries after “also recorded” stand apart in the source; their conditions may differ. Read-outs that look alike come from different tables or passages of the source. Blank lines part the entries; values can stand above or below the molecule they belong to.
Key:
ABL1 kinase = ABL1 kinase (Homo sapiens, UniProt P00519); settings: for Luminescence, Raw Data (LUM): ADP-Glo
physchem = settings: pH 7.4, logD (7.4): experimental distribution coefficient in n-octanol/phosphate-buffered saline
[1] = Metabolic stability in human liver microsomes; settings: both, human, liver microsomes (pooled)
human liver microsomes [2] = assay: Metabolic stability in human liver microsomes; settings: human liver microsomes
[3] = Kinetic solubility in phosphate-buffered saline, pH 7.4
human liver microsomes [4] = settings: both, 2 µM, pH 7.4
[5] = Determination of pKa values (potentiometric titration); type: physicochemical; settings: methanol-water (1:4) solution of NaCl; titration method; potentiometric acid-base titration at 25 °C in methanol-water (1:4), 150 mM NaCl; read-out: pKa (exp.)
Method: Data is obtained by the titration method. Para-methyl benzoic acid (83) is used as a reference. TEXT PRINTED IN THE PICTURE: 83: pKa (exp.): 4.5 ± 0.1 | 84: pKa (exp.): 5.6 ± 0.1 | 47: pKa (exp.): 4.4 ± 0.1 | 54: pKa (exp.): 4.1 ± 0.1 […]
Determination of pKa values
The tendency of a compound to donate proton is measured as its acid ionization constant (dissociation constant), or Ka. A more practical scale of representing acidity is pKa which is the negative logarithm of the Ka (pKa = -log Ka). pKa of a test article is determined by pH-metric method based on potentiometric acid-base titration at 25 °C. The test compounds are dissolved in acidified methanol-water (1:4) solution of NaCl (150 mM, pH 2) and slowly titrated with 0.3 M sodium hydroxide methanol-water (1:4) solution, while recording pH of the solution as a function of NaOH volume used during the titration (construction of the titration curve). Titration of acidified NaCl solution in absence of any compounds is used for blank plotting.5-8 Buffering capacity is calculated in each point of titration curve as the ratio of the NaOH flow (constant) to the pH rise velocity. The pKa value is determined from resulting plot of buffering capacity versus pH as the maximum of buffering capacity. pH-metric method allows to measure pKas in the range of approximately between 2 and 12. […]
meter, pHi®510 (Beckman Coulter, Canada; Cat# A58734). Data analysis was done using GraphPad […]
Sodium hydroxide (Enamine, Ukraine; CAS # 1310-73-2)
Sodium chloride BioXtra, ≥99.5% (AT) (Sigma-Aldrich, USA; Cat # S7653)
Hydrochloric acid (Enamine, Ukraine; CAS # 7647-01-0)
Disposable pipette tips (Eppendorf, German; Matrix and Finntip, Thermo, USA) Polypropylene graduated conical tubes, 50 mL (Kartell, Italy; Cat. # 84002) Polypropylene syringe (10 mL) with tubing (Hemoplast, Ukraine) […]
pH-meter, pHi®510 (Beckman Coulter, Canada; Cat# A58734)
Multichannel Electronic Pipettes 5-50 µL, 10-1000 µL (Thermo, USA)
Magnetic stirrer standard unit (IKA, USA)
Syringe Driver Mdl 100 (KDScientific, USA)

[6] = Thermal and chemical stability; type: physicochemical
Description: We also examined the thermal and chemical stability of the synthesized 2-oxabicyclo[2.2.2]octanes. As representative examples, we selected three molecules: isomeric acids 47, 54, and amine 52. All 2-oxabicyclo[2.2.2]octanes were crystalline solids that were stable in air. We stored them in stock at room temperature in closed vials and observed no changes according to ^1H NMR after one year. […] Treatment of the selected 2-oxabicyclo[2.2.2]octanes with aq. 1 M HCl, or aq.

Chain of ABL1 kinase (P00519 whole entry): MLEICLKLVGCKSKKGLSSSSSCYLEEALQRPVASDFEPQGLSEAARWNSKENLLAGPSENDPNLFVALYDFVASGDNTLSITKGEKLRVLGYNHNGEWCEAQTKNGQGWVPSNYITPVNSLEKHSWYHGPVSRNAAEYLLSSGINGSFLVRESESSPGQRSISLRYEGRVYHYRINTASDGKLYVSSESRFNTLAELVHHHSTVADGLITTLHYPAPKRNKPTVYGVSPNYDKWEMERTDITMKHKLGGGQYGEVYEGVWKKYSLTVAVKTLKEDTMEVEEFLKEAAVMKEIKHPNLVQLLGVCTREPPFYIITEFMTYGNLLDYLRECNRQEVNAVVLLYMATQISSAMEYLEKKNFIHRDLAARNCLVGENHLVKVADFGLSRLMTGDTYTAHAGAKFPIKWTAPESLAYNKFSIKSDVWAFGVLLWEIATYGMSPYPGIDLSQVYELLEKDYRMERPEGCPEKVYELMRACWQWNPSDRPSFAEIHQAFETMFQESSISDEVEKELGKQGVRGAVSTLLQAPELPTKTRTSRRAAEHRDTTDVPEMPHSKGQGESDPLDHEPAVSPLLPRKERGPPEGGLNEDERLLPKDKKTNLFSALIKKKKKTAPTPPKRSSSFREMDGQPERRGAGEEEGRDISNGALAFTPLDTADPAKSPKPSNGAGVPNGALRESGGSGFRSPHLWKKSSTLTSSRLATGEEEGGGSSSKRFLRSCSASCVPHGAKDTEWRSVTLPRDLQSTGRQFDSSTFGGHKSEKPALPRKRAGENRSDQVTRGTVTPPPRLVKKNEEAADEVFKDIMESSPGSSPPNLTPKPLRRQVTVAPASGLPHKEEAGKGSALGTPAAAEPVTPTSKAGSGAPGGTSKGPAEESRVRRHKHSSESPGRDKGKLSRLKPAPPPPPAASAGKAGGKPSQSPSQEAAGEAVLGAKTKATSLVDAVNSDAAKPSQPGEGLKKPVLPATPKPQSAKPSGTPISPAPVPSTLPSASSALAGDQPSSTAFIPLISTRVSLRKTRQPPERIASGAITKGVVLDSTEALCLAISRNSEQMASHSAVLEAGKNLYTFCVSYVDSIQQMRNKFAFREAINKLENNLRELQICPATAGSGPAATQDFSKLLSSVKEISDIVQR

Luminescence, Raw Data (LUM) (ABL1 kinase; 1st run, plate ABL1_CpdsTitr_Read1, single wells, compound 15 nM): 1058 and 1113 and 1791 and 1922 | Luminescence, Raw Data (LUM) (ABL1 kinase; 1st run, plate ABL1_CpdsTitr_Read1, single wells, compound 29 nM): 1154 and 1300 and 1938 and 1968 | Luminescence, Raw Data (LUM) (ABL1 kinase; 1st run, plate ABL1_CpdsTitr_Read1, single wells, compound 59 nM): 1819 and 1993 and 1840 and 1873 | Luminescence, Raw Data (LUM) (ABL1 kinase; 1st run, plate ABL1_CpdsTitr_Read1, single wells, compound 117 nM): 2012 and 2091 and 2063 and 1940 | Luminescence, Raw Data (LUM) (ABL1 kinase; 1st run, plate ABL1_CpdsTitr_Read1, single wells, compound 234 nM): 1243 and 1296 and 1230 and 1333 | Luminescence, Raw Data (LUM) (ABL1 kinase; 1st run, plate ABL1_CpdsTitr_Read1, single wells, compound 469 nM): 1542 and 1412 and 1342 and 1622 | Luminescence, Raw Data (LUM) (ABL1 kinase; 1st run, plate ABL1_CpdsTitr_Read1, single wells, compound 938 nM): 1188 and 1448 and 1337 and 1335 | Luminescence, Raw Data (LUM) (ABL1 kinase; 1st run, plate ABL1_CpdsTitr_Read1, single wells, compound 1500 nM): 1805 and 977 and 1232 and 1070 | Luminescence, Raw Data (LUM) (ABL1 kinase; 1st run, plate ABL1_CpdsTitr_Read1, single wells, compound 1875 nM): 1156 and 1302 and 1289 and 1256 | Luminescence, Raw Data (LUM) (ABL1 kinase; 1st run, plate ABL1_CpdsTitr_Read1, single wells, compound 3000 nM): 1327 and 1543 and 1534 and 1388 | Luminescence, Raw Data (LUM) (ABL1 kinase; 1st run, plate ABL1_CpdsTitr_Read1, single wells, compound 3750 nM): 1381 and 1311 and 1134 | Luminescence, Raw Data (LUM) (ABL1 kinase; 1st run, plate ABL1_CpdsTitr_Read1, single wells, compound 7500 nM): 1269 and 1270 and 1321 and 1071 | Luminescence, Raw Data (LUM) (ABL1 kinase; 2nd run, plate ABL1_CpdsTitr2_Read1, single wells, compound 15 nM): 6198 and 6465 and 5917 and 6372 | Luminescence, Raw Data (LUM) (ABL1 kinase; 2nd run, plate ABL1_CpdsTitr2_Read1, single wells, compound 29 nM): 7090 and 6257 and 6692 and 6143 | Luminescence, Raw Data (LUM) (ABL1 kinase; 2nd run, plate ABL1_CpdsTitr2_Read1, single wells, compound 59 nM): 6364 and 6701 and 5655 and 6486 | Luminescence, Raw Data (LUM) (ABL1 kinase; 2nd run, plate ABL1_CpdsTitr2_Read1, single wells, compound 117 nM): 6190 and 6555 and 5494 and 6585 | Luminescence, Raw Data (LUM) (ABL1 kinase; 2nd run, plate ABL1_CpdsTitr2_Read1, single wells, compound 234 nM): 5219 and 5282 and 5107 and 4913 | Luminescence, Raw Data (LUM) (ABL1 kinase; 2nd run, plate ABL1_CpdsTitr2_Read1, single wells, compound 469 nM): 6324 and 5692 and 5791 and 5812 | Luminescence, Raw Data (LUM) (ABL1 kinase; 2nd run, plate ABL1_CpdsTitr2_Read1, single wells, compound 938 nM): 6138 and 6238 and 6011 and 5496 | Luminescence, Raw Data (LUM) (ABL1 kinase; 2nd run, plate ABL1_CpdsTitr2_Read1, single wells, compound 1500 nM): 5294 and 5538 and 5113 and 5062 | Luminescence, Raw Data (LUM) (ABL1 kinase; 2nd run, plate ABL1_CpdsTitr2_Read1, single wells, compound 1875 nM): 6881 and 6876 and 6366 and 6488 | Luminescence, Raw Data (LUM) (ABL1 kinase; 2nd run, plate ABL1_CpdsTitr2_Read1, single wells, compound 3000 nM): 4805 and 5280 and 4474 and 4682 | Luminescence, Raw Data (LUM) (ABL1 kinase; 2nd run, plate ABL1_CpdsTitr2_Read1, single wells, compound 3750 nM): 6509 and 5880 and 6068 and 5810 | Luminescence, Raw Data (LUM) (ABL1 kinase; 2nd run, plate ABL1_CpdsTitr2_Read1, single wells, compound 7500 nM): 6480 and 6469 and 6139 and 5760 | logD (physchem): 1.8 | k el at 2 µM ([1]; pH 7.4): 0.000133 s⁻¹ | microsomal CLint at 2 µM ([1]; pH 7.4): 19 µL/min/mg | remaining at 40 min, 2 µM ([1]; pH 7.4, % Remaining without cofactor, Mean of 2, human liver microsomes, NADPH-cofactor system substituted with phosphate buffer): 118% | remaining at 7 min, 2 µM ([1]; pH 7.4, % Remaining, Mean of 2, human liver microsomes with NADPH, 7 min): 101% | remaining at 0.25 h, 2 µM ([1]; pH 7.4, % Remaining, Mean of 2, human liver microsomes with NADPH, 15 min): 98% | remaining at 25 min, 2 µM ([1]; pH 7.4, % Remaining, Mean of 2, human liver microsomes with NADPH, 25 min): 90% | remaining at 40 min, 2 µM ([1]; pH 7.4, % Remaining, Mean of 2, human liver microsomes with NADPH): 73% | half-life at 2 µM ([1]; pH 7.4, t1/2: half-time of a metabolic decomposition, human liver microsomes, 2 μM compound, NADPH, 37 °C): 1.45 h | CLint (human liver microsomes [2]): 19 | t1/2: half-time of a metabolic decomposition (human liver microsomes [2]; 2 μM compound, NADPH, 37 °C): 1.45 h | solubility kinetic at 2 h ([3]; 25 °C, pH 7.4, aqueous buffer, kinetic from dmso stock): 389 µM (≈ 205 µg/mL)
SMILES: Cc1ccc(NC(=O)C23CCC(CN4CCN(C)CC4)(CC2)OC3)cc1Nc1nccc(-c2cccnc2)n1 [Compound 85]
inhibitory effect on the catalytic activity of ABL1 kinase (in words) (ABL1 kinase; ADP-Glo Kinase Assay, 12 concentration points): did not observe any significant inhibitory effect; also recorded: inactive

kel (elimination constant) (human liver microsomes [4]): 0.119 min⁻¹ | % Remaining, Mean of 2 (human liver microsomes [4]; microsomes, 7 min): 49% | % Remaining without cofactor, Mean of 2 (human liver microsomes [4]; microsomes, 40 min): 91%
SMILES: O=C(O)Cc1ccccc1Nc1c(Cl)cccc1Cl [Diclofenac]

solubility kinetic at 2 h ([3]; pH 7.4): 126 µM (≈ 37 µg/mL)
SMILES: Cc1nccn1CC1CCc2c(c3ccccc3n2C)C1=O (stereo not shown) [Ondansetron, reference compound]

pKa [5]: 4.1 | chemical stability in acid ([6]; aq. 1 M HCl, room temperature, 1 h): no decomposition | chemical stability in base ([6]; aq. 1 M NaOH, room temperature, 1 h): no decomposition | thermal stability ([6]; heating at 100 °C for five minutes): remained stable | stability on storage ([6]; in air, room temperature, closed vials, one year, 1H NMR): no changes
SMILES: CC12CCC(C(=O)O)(CC1)OC2 [Compound 54]
